{"source": "paper PMC7259601", "about": "(PLoS ONE, 2020)", "key": {"[1]": {"tested_on": "ER (non-selective) (h) (agonist radioligand)", "test": "CEREP Diversity Panel", "assay_type": "binding, human", "design": "dose or concentration left out as unconfirmed", "experimental": "(§1) […]. MAO-A inhibition at 10 μM was 37%, in line with internal data."}, "[2]": {"tested_on": "AR (h) (agonist radioligand)", "test": "CEREP Diversity Panel", "assay_type": "binding, human", "design": "dose or concentration left out as unconfirmed", "experimental": "as §1"}, "rats": {"tested_on": "rats", "test": "Functional Observation Battery", "assay_type": "in vivo", "conditions": "single dose of up to 100 mg/kg"}, "[3]": {"tested_on": "isolated Sprague-Dawley rats", "test": "Resident Intruder test, rat isolation rearing model", "assay_type": "in vivo", "conditions": "0.16 or 0.48 mg/kg/day", "experimental": "Sprague Dawley Rats: Right after the weaning (post natal day 21-23), 72 Sprague-Dawley male rats (Charles River, bred in the UAB Animal facility) were divided in two groups: Control (N = 18), maintained 3-4 animals per cage; Isolated (N = 54), 1 animal per cage ([…] 1291H Eurostandard type III with ECOPURE CHIPS 6 bedding material, Harlan). Animals were maintained at 21 ± 2 °C controlled temperature in a 12 hr light / dark cycle (lights on at 8:00 am) with ad libitum access to food (2014 TEKLAD, Harlan) and water. […] Control animals were treated with vehicle. The administration route was drinking water and the vehicle 1.8% 2-Hydroxypropyl-b-cyclodextrin. Drug concentration was adjusted weekly by body weight and water consumption. During the last week of treatment, all animals were tested in the EPM and, on a different day, in the RI test (N = 12 / group). After depth anesthesia with Isoflurane, animals were perfused with saline solution followed by paraformaldehyde in order to obtain brain samples for histological analysis.\n(§2) The protocol was modified from previously described. Briefly, the test subject (resident) was maintained in its home cage without bedding changes for one week. […] In mice the session was video-recorded for 20 min and social interaction (social interaction and rearings) and aggressive behavior (lateral threats, clinch attacks, keep-down behavior) were analyzed. […] In rats the session was video recorded for 15 min and social interaction (active and passive social interaction, number of evitations and time without social interaction) were analyzed. […] In addition, the time spent without social interaction was also measured.\n(§3) Resident Intruder (RI): Mice were video-recorded for 20 min and social interaction and aggressive behavior were analyzed. Rats were video recorded for 15 min and social interaction (active and passive social interaction, number of evitations and time without social interaction) were analyzed."}, "SAMP8 mice": {"tested_on": "SAMP8 mice", "test": "Resident Intruder (RI) test, SAMP8", "assay_type": "in vivo, mouse", "conditions": "0.32 or 0.96 mg/kg/day for 5 weeks, male", "experimental": "Both male and female mice from the senescence accelerated strain SAMP8 and its control SAMR1 of different ages (see Table S3 for details) were used in these studies. Mice were breed in the animal facilities of the Pharmacy Faculty (University of Barcelona), maintained in a at 22 ± 2 °C controlled temperature in a 12 hr light / dark cycle (lights on at 8:00 am; 300 lux/0 lux) with ad libitum access to food (2018 TEKLAD, Harlan) and water. Male mice were housed individually (males) or in groups of 4-5 animals (females) in plastic colony boxes with a sawdust bedding material. […] SAMR1 mice treated with vehicle were included as a control. All drugs were administered via drinking water and diluted in vehicle. Drug concentration was calculated weekly in function of body weight and corrected in function of drinking water consumption. Cognitive function was evaluated by NORT, social behavior was evaluated by RI and anxiety and motor function were evaluated by EPM and OF. When necessary, animals were deeply anesthetized (80 mg/kg sodium pentobarbital) and brain samples (hippocampus, (prefrontal) cortex) were micro-dissected and processed according to the downstream analysis.\nas §2, §3"}, "phosphatase CDC25A (h)": {"target": "T1, phosphatase CDC25A (h) (Homo sapiens, UniProt P30304)", "T1 construct": "purchased CEREP (Eurofins Cerep)", "test": "CEREP Diversity Panel", "assay_type": "biochemical", "experimental": "as §1"}, "acetylcholinesterase (h)": {"target": "T2, acetylcholinesterase (h) (Homo sapiens, UniProt P22303)", "T2 construct": "purchased CEREP (Eurofins Cerep)", "T2 sequence (P22303 32-614)": "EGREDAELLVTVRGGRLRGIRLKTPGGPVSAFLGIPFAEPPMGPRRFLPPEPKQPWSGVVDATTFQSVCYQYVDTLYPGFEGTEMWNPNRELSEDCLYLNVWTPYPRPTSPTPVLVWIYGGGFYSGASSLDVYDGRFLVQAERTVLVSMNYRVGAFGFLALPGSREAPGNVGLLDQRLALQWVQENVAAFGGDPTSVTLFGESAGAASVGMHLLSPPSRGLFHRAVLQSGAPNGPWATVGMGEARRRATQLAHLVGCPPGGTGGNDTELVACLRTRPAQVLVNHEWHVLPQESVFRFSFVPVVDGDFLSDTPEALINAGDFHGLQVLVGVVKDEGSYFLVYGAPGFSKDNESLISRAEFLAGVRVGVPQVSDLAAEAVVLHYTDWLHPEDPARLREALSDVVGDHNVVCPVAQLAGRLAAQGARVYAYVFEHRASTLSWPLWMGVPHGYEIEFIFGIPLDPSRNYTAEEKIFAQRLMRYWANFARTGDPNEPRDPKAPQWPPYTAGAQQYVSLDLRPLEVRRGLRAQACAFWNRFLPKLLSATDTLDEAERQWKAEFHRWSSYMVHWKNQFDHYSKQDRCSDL", "test": "CEREP Diversity Panel", "assay_type": "biochemical", "experimental": "as §1"}, "PDE1B (h)": {"target": "T3, PDE1B (h) (Homo sapiens, UniProt Q01064)", "T3 construct": "purchased CEREP (Eurofins Cerep)", "test": "CEREP Diversity Panel", "assay_type": "biochemical", "experimental": "as §1"}, "Eg5 (h)": {"target": "T4, Eg5 (h) (Homo sapiens, UniProt P52732)", "T4 construct": "purchased CEREP (Eurofins Cerep)", "test": "CEREP Diversity Panel", "assay_type": "biochemical", "experimental": "as §1"}, "PDE3A (h)": {"target": "T5, PDE3A (h) (Homo sapiens, UniProt Q14432)", "T5 construct": "purchased CEREP (Eurofins Cerep)", "test": "CEREP Diversity Panel", "assay_type": "biochemical", "experimental": "as §1"}, "PDE2A1 (h)": {"target": "PDE2A1 (h) (Homo sapiens, UniProt O00408)", "test": "CEREP Diversity Panel", "assay_type": "biochemical", "experimental": "as §1"}, "MAO- A (h)": {"target": "T6, MAO- A (h) (Homo sapiens, UniProt P21397)", "T6 construct": "purchased CEREP (Eurofins Cerep)", "T6 sequence (P21397 whole entry)": "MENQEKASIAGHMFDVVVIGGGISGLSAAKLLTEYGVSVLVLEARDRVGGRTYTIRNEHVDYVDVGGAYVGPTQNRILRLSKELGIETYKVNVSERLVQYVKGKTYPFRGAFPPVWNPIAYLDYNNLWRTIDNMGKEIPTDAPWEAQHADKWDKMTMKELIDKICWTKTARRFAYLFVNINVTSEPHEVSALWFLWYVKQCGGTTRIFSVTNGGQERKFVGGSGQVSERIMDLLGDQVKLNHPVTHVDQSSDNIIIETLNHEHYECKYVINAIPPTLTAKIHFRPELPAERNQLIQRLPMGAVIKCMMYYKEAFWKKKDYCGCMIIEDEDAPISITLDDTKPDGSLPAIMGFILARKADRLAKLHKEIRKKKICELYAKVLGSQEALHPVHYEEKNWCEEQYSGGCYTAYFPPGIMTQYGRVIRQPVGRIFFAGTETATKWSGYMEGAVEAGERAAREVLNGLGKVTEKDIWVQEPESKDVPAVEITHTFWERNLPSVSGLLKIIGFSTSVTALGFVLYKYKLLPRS", "test": "CEREP Diversity Panel", "assay_type": "biochemical", "experimental": "as §1"}, "CENP-E (h)": {"target": "T7, CENP-E (h) (Homo sapiens, UniProt Q02224)", "T7 construct": "purchased CEREP (Eurofins Cerep)", "T7 sequence (Q02224 whole entry)": "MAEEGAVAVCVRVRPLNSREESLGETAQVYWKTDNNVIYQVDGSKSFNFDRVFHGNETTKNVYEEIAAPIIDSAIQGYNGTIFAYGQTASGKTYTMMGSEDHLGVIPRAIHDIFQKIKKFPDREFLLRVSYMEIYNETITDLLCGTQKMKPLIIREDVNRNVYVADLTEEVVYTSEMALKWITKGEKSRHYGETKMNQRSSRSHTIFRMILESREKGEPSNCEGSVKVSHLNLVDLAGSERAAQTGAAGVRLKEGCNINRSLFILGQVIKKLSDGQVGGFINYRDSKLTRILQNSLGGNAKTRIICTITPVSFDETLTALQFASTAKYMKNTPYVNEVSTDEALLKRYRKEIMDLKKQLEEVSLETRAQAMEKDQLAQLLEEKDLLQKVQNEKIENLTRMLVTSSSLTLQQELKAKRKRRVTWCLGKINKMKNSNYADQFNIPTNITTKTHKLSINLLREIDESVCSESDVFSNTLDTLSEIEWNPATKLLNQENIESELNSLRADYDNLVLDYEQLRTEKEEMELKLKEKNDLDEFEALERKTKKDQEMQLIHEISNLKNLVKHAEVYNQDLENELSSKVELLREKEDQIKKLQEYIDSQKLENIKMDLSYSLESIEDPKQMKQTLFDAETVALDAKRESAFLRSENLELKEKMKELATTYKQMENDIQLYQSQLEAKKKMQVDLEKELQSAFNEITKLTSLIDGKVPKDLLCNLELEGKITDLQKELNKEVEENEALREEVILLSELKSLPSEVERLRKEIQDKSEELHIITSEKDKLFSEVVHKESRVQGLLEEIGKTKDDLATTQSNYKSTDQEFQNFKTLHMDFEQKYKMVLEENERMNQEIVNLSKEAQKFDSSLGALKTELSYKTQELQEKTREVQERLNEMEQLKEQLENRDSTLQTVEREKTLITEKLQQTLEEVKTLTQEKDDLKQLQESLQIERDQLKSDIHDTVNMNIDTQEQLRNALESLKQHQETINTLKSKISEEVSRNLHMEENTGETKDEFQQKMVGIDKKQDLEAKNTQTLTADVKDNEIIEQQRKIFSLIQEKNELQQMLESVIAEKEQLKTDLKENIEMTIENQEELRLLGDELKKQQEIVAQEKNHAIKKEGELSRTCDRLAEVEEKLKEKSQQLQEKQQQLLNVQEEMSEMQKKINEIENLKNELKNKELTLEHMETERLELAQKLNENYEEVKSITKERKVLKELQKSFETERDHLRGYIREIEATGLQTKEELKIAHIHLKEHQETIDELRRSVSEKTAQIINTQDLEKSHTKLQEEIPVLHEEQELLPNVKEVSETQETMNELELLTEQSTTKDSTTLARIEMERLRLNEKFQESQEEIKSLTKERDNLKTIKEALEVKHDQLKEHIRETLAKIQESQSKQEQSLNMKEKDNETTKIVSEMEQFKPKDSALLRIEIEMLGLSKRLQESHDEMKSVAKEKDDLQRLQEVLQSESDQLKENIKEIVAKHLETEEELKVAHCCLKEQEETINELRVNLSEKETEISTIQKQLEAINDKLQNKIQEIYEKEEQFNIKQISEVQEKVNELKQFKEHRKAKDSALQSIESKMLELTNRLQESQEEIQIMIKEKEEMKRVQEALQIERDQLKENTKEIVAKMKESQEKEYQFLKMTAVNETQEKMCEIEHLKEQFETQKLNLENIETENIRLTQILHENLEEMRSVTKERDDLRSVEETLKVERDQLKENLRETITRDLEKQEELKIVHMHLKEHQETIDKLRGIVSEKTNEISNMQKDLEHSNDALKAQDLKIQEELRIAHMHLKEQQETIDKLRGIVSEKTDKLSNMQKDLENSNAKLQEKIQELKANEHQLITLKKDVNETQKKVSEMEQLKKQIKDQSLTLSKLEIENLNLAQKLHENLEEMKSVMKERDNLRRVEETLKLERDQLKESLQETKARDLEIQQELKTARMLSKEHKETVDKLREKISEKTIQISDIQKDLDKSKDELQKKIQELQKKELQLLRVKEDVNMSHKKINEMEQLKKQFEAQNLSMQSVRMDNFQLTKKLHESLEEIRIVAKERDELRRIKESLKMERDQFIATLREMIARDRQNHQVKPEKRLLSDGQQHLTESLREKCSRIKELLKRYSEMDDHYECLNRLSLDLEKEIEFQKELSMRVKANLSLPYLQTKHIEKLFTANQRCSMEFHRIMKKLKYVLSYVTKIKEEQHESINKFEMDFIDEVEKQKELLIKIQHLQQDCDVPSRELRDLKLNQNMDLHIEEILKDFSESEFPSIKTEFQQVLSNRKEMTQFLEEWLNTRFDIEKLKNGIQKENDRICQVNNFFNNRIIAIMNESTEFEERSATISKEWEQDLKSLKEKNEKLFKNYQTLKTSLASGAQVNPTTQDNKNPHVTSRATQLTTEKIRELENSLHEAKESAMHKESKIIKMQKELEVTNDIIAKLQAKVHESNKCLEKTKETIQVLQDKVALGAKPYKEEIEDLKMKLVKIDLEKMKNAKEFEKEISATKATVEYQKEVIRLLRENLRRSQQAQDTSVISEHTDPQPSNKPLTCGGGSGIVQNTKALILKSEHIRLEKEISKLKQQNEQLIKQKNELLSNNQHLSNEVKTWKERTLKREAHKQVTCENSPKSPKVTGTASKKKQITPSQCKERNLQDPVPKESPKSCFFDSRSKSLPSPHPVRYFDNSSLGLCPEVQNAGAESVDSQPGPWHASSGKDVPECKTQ", "test": "CEREP Diversity Panel", "assay_type": "biochemical", "experimental": "as §1"}, "[4]": {"target": "T8, phosphatase 1B (h) (PTP1B) (Homo sapiens, UniProt P18031)", "T8 construct": "purchased CEREP (Eurofins Cerep)", "T8 sequence (P18031 whole entry)": "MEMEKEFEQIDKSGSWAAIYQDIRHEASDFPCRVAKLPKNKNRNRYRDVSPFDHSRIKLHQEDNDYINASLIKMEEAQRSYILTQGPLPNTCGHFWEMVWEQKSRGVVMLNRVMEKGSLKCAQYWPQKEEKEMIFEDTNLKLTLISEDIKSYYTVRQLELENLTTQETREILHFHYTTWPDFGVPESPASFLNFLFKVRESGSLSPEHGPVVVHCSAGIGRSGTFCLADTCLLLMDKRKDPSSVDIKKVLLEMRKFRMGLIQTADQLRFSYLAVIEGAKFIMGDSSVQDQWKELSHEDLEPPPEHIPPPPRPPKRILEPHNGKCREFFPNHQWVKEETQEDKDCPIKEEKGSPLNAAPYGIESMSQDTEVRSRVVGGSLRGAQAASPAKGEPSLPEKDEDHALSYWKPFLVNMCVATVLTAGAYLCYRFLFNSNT", "test": "CEREP Diversity Panel", "assay_type": "biochemical", "experimental": "as §1"}, "tyrosine hydroxylase": {"target": "T9, tyrosine hydroxylase (Rattus norvegicus, UniProt P04177)", "T9 construct": "purchased CEREP (Eurofins Cerep)", "test": "CEREP Diversity Panel", "assay_type": "biochemical", "experimental": "as §1"}, "5-lipoxygenase (h)": {"target": "T10, 5-lipoxygenase (h) (Homo sapiens, UniProt P09917)", "T10 construct": "purchased CEREP (Eurofins Cerep)", "T10 sequence (P09917 whole entry)": "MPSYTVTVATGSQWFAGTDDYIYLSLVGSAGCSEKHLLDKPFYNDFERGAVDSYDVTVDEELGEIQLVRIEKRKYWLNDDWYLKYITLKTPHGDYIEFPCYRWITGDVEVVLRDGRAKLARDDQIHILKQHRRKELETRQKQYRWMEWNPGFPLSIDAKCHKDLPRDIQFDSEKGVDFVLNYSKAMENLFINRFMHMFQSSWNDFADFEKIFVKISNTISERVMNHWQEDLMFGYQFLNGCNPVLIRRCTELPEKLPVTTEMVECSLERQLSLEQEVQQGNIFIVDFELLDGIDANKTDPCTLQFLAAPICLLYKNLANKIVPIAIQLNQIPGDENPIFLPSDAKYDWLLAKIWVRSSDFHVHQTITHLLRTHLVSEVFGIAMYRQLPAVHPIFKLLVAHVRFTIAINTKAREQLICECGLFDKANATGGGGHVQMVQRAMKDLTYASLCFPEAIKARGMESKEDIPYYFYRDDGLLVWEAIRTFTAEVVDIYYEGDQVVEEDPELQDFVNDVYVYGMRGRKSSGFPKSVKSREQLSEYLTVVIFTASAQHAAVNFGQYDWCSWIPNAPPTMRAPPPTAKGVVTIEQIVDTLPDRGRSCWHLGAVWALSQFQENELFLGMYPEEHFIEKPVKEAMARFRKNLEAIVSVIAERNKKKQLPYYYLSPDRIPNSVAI", "test": "CEREP Diversity Panel", "assay_type": "biochemical", "experimental": "as §1"}, "GABA transaminase": {"target": "T11, GABA transaminase (Rattus norvegicus, UniProt P50554)", "T11 construct": "purchased CEREP (Eurofins Cerep)", "test": "CEREP Diversity Panel", "assay_type": "biochemical", "experimental": "as §1"}, "[5]": {"tested_on": "COMT (catechol- O-methyl transferase)", "test": "CEREP Diversity Panel", "assay_type": "biochemical", "design": "dose or concentration left out as unconfirmed", "experimental": "as §1"}, "[6]": {"tested_on": "adenylyl cyclase (activator effect)", "test": "CEREP Diversity Panel", "assay_type": "biochemical", "design": "dose or concentration left out as unconfirmed", "experimental": "as §1"}, "ATPase (Na+/K+)": {"tested_on": "ATPase (Na+/K+)", "test": "CEREP Diversity Panel", "assay_type": "biochemical", "design": "dose or concentration left out as unconfirmed", "experimental": "as §1"}}, "note": "Where two headings read alike, the source gives them in different places.", "data": [{"smiles": "Nc1nnc(CN[C@@H]2C[C@H]2c2ccc(OCc3ccccc3)cc2)o1", "note": "[ORY-2001, vafidemstat]", "values": [{"measurement": "% inhibition", "setting": "[1]", "result": 13, "unit": "%"}, {"measurement": "% inhibition", "setting": "[2]", "result": -2, "unit": "%"}, {"measurement": "neurological alterations in the Functional Observation Battery", "setting": "rats", "result": "did not lead to neurological alterations"}, {"measurement": "active and passive social interaction", "setting": "[3]", "result": "had no effect on these parameters"}, {"measurement": "number of evitations", "setting": "[3]", "result": "restored to normality"}, {"measurement": "time without social interaction", "setting": "[3]", "result": "dose dependently reduced"}, {"measurement": "latency to attack", "setting": "SAMP8 mice", "result": "tendency to increase the latency to attack"}, {"measurement": "number of attacks and clinch attacks", "setting": "SAMP8 mice", "result": "lowered to SAMR1 levels"}, {"measurement": "time in social interactions and number of rearings", "setting": "SAMP8 mice", "result": "No significant strain- or treatment-differences"}, {"measurement": "inhibition at 10 µM", "setting": "phosphatase CDC25A (h)", "result": 5, "unit": "%"}, {"measurement": "inhibition at 10 µM", "setting": "acetylcholinesterase (h)", "result": -4, "unit": "%"}, {"measurement": "inhibition at 10 µM", "setting": "PDE1B (h)", "result": 7, "unit": "%"}, {"measurement": "inhibition at 10 µM", "setting": "Eg5 (h)", "result": -3, "unit": "%"}, {"measurement": "inhibition at 10 µM", "setting": "PDE3A (h)", "result": 1, "unit": "%"}, {"measurement": "inhibition at 10 µM", "setting": "PDE2A1 (h)", "result": -2, "unit": "%"}, {"measurement": "inhibition at 10 µM", "setting": "MAO- A (h); 10 μM, read-out: MAO-A inhibition", "result": 37, "unit": "%"}, {"measurement": "inhibition at 10 µM", "setting": "MAO- A (h); at 10 µM, read-out: % inhibition", "result": 37, "unit": "%"}, {"measurement": "inhibition at 10 µM", "setting": "CENP-E (h)", "result": 3, "unit": "%"}, {"measurement": "inhibition at 10 µM", "setting": "[4]", "result": 2, "unit": "%"}, {"measurement": "inhibition at 10 µM", "setting": "tyrosine hydroxylase", "result": -12, "unit": "%"}, {"measurement": "inhibition at 10 µM", "setting": "5-lipoxygenase (h)", "result": 3, "unit": "%"}, {"measurement": "inhibition at 10 µM", "setting": "GABA transaminase", "result": 8, "unit": "%"}, {"measurement": "% inhibition", "setting": "[5]", "result": 11, "unit": "%"}, {"measurement": "% inhibition", "setting": "[6]", "result": 0, "unit": "%"}, {"measurement": "% inhibition", "setting": "ATPase (Na+/K+)", "result": 4, "unit": "%"}]}]}
